Target: Aspartate--tRNA ligase (Escherichia coli (strain K12), UniProt P21889)
Assay: Determination of the Inhibition Type and Constant (Ki)
Conditions: pH 7.5; 37 °C
Procedure: The Km and Kappm for the amino acid substrate were first calculated from Lineweaver-Burk plots. The Ki values were calculated from the Kappm vs [I] plot. The Ki values for the inhibitors with respect for the amino acid substrates were determined by measuring the apparent Km for the amino acid in the presence of saturating concentrations of both ATP and tRNA, and of various fixed concentrations of the inhibitor.

Sequence of Aspartate--tRNA ligase (P21889 whole entry): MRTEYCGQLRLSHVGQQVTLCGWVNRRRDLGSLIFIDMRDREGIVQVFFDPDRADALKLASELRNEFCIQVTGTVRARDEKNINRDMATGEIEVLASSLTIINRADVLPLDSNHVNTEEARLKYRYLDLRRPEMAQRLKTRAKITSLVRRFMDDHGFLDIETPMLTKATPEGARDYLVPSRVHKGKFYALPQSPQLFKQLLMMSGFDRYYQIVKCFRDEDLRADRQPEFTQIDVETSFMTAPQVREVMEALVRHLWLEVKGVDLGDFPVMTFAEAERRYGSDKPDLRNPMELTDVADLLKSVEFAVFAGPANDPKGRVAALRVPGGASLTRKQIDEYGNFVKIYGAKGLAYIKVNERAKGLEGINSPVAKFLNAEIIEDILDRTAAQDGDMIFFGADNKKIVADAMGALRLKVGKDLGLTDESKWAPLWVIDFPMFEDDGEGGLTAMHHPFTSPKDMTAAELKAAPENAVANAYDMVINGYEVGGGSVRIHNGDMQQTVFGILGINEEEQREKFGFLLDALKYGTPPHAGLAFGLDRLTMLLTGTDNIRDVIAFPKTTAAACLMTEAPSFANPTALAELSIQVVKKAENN

Ki [nM] | SMILES
15 | Nc1ncnc2c1ncn2[C@@H]1O[C@H](COS(=O)(=O)NC(=O)C(N)CC(=O)O)[C@@H](O)[C@H]1O (stereo partly drawn) [3-amino-4-[({[(2R,3S,4R,5R)-5-(6-amino-9H-purin-9-yl)-3,4-dihydroxyoxolan-2-yl]methoxy}sulfonyl)amino]-4-oxobutanoic acid]
123 | Nc1ncnc2c1ncn2[C@@H]1O[C@H](COP(=O)(O)CC(=O)C(N)CC(=O)O)[C@@H](O)[C@H]1O (stereo partly drawn) [3-amino-5-({[(2R,3S,4R,5R)-5-(6-amino-9H-purin-9-yl)-3,4-dihydroxyoxolan-2-yl]methoxy}(hydroxy)phosphoryl)-4-oxopentanoic acid]

SMILES | Ki [nM]
Nc1ncnc2c1ncn2[C@@H]1O[C@H](COP(=O)(O)OC[C@@H](N)CC(=O)O)[C@@H](O)[C@H]1O [(3S)-3-amino-4-[({[(2R,3S,4R,5R)-5-(6-amino-9H-purin-9-yl)-3,4-dihydroxyoxolan-2-yl]methoxy}(hydroxy)phosphoryl)oxy]butanoic acid] | 45000
